Test results: patent US20240400521A1, “QUINAZOLINE COMPOUND, COMPOSITION, AND APPLICATION THEREOF” (BEIJING SCITECH-MQ PHARMACEUTICALS LIMITED, priority 2021, published 2024)
Read-outs that look alike come from different tables or passages of the source.

Tests used:
[1] = Ability to penetrate the blood-brain barrier: brain and whole blood concentration in SD rats; assay type: in vivo; settings: rat
Experimental: (§1) In this assay, the pharmacokinetic characteristics and ability to penetrate the blood-brain barrier of the compounds of the present application were assayed after administration of some of the compounds of the present application to SD rats by single oral administration and intravenous injection.
(§2) • 1. Intravenous (IV) injection group: an appropriate amount of the assay compound was weighed, and completely dissolved in an appropriate volume of vehicle (DMSO/Solutol/H2O=5/10/85 V/V/V with 2 times mole of HCl). The mixture was stirred, vortexed and/or sonicated. Once a solution was obtained, the vehicle was gradually added to a final volume to reach the target concentration. The solution was vortexed, and sonicated to obtain a homogeneous solution. The solution was filtered through a 0.22 μm PVDF membrane. • 2. Oral (PO) group: an appropriate amount of the assay compound was weighed, and completely dissolved in an appropriate volume of vehicle (DMSO/Solutol/H2O=5/10/85 V/V/V with 2 times mole of HCl). The mixture was stirred, vortexed and/or sonicated. Once a solution was obtained, the vehicle was gradually added to a final volume to reach the target concentration. The solution was vortexed, and sonicated to obtain a homogeneous solution. (iii) Administration and Sampling of Rats
(§3) Meanwhile, the IV group was not fasted and the PO group was fasted overnight (>12 hrs) and given food 2 hrs after drug administration. All animals had free access to water. The dosing regimen and pharmacokinetic sampling regimen are given in Table 6 and Table 7 below, respectively.
(§4) Rats were administered according to the above regimen, and blood and brain tissue samples were collected and processed at predetermined time points (collection and processing were performed according to conventional methods in the art).
(§5) Brains were weighed and homogenized by adding 4-fold homogenizing solution (acetonitrile/water=1/1). Six times volume of acetonitrile was added respectively to the whole blood samples and brain homogenate. The mixture was vortexed for 1 min and then centrifuged at 4° C., 4500 rpm for 15 min. The supernatant was diluted 2-fold with ultra-pure water, and the samples were analyzed by LC/MS.

[2] = Pharmacokinetics in SD rats after single oral and intravenous administration; assay type: in vivo; settings: rat; for concentration at 0 hr: time point 0 hr; for concentration at 0.25 hr: time point 0.25 hr; for concentration at 0.5 hr: time point 0.5 hr; for concentration at 1 hr: time point 1 hr; for concentration at 2 hr: time point 2 hr; for concentration at 4 hr: time point 4 hr; for concentration at 7 hr: time point 7 hr
Experimental: as §1, §2, §3, §4, §5
Pharmacokinetic parameters were calculated using WinNonlin software. The following pharmacokinetic parameters were calculated if appropriate plasma drug concentration-time data were available: CL (clearance); Vd (apparent volume of distribution); T1/2 (elimination half-life time); Cmax (peak concentration); Tmax (time to peak); AUC (area under plasma drug concentration-time curve); MRT (mean retention time); F % (bioavailability).

EGFR^WT kinase = biological target: T1, EGFR^WT kinase (Homo sapiens, UniProt P00533); assay: EGFR^WT kinase assay (ULight peptide / Eu-PT66 antibody detection); assay type: biochemical
T1 construct: purchased Carna Biosciences 08-115
From the text: Reagents and consumables: ULight™-labeled Ploy GT Peptide (Perkin Elmer, Cat. No. TRF-0100-M); ULight™-labeled JAK-1 (Try1023) Peptide (Perkin Elmer, Cat. No. TRF-0121-M); Eu-W1024-labeled Anti-Phosphotyrosine Antibody (PT66) (Perkin Elmer, Cat. No. AD0068); 10×Detection Buffer (Perkin Elmer, Cat. No. CR97-100); HER2 Kinase (Carna Biosciences, Cat. No. 08-016); EGFR kinase (Carna Biosciences, Cat. No. 08-115); HEPES (GIBCO, Cat. No. 15630-080); EGTA (Sigma, Cat. No. 03777-10G); EDTA (Sigma, Cat. No. EDS-100G); MgCl2 (Sigma, Cat. No. 63069-100ML); DTT (Sigma, Cat. No. 43816-10ML); Tween-20 (Sigma, Cat. No. P7949-100ML); DMSO (Life Science, Cat. No. 0231-500ML); 384-well plates (Perkin Elmer, Cat. No. 607290); multifunctional plate reader (Perkin Elmer, Cat. No. Envision)
Preparation of compound solution: The assay compound was dissolved in DMSO to form a 10 mM stock solution. Prior to use, the compound was diluted to 0.25 mM in DMSO (100 times the final concentration of the diluent) and then subjected to a 3-fold concentration gradient dilution to obtain a total of 11 concentrations. The solution was diluted with buffer to a diluent with 4× the final concentration when the drug was added.
EGFR^WT kinase assay: buffer was prepared, and 3.48 nM 4× EGFR kinase solution, 600 μM 4× ATP solution, and 400 nM 4×ULight™-labeled JAK-1 (Try1023) Peptide substrate solution was prepared using the buffer. After the preparation was completed, the enzyme was mixed with different concentrations of compounds pre-prepared by dilution, and the mixture was left to stand at room temperature for 5 min. Each concentration was performed in duplicate. The corresponding substrate and ATP were added and the mixture was reacted at room temperature for 120 minutes (with negative and positive controls). After completion of the reaction, PT66 detection antibody was added. The mixture was incubated at room temperature for 60 minutes, and then detected by Envision.
Data Calculation: the reading of well and inhibition rate were calculated using Excel, wherein reading of well=10000*(well EU665 value)/(well EU615 value), and inhibition rate=[(reading of positive control well−reading of assay well)/(reading of positive control well−reading of negative control well)]*100%. Compound concentrations and corresponding inhibition rates were input into GraphPad Prism for processing to calculate IC50 values.

[3] = SD, plasma, IV 3 mg/kg, read-out: Plasma drug concentration
[4] = SD, plasma, PO 10 mg/kg, read-out: Plasma drug concentration

T1 sequence (P00533 25-1210): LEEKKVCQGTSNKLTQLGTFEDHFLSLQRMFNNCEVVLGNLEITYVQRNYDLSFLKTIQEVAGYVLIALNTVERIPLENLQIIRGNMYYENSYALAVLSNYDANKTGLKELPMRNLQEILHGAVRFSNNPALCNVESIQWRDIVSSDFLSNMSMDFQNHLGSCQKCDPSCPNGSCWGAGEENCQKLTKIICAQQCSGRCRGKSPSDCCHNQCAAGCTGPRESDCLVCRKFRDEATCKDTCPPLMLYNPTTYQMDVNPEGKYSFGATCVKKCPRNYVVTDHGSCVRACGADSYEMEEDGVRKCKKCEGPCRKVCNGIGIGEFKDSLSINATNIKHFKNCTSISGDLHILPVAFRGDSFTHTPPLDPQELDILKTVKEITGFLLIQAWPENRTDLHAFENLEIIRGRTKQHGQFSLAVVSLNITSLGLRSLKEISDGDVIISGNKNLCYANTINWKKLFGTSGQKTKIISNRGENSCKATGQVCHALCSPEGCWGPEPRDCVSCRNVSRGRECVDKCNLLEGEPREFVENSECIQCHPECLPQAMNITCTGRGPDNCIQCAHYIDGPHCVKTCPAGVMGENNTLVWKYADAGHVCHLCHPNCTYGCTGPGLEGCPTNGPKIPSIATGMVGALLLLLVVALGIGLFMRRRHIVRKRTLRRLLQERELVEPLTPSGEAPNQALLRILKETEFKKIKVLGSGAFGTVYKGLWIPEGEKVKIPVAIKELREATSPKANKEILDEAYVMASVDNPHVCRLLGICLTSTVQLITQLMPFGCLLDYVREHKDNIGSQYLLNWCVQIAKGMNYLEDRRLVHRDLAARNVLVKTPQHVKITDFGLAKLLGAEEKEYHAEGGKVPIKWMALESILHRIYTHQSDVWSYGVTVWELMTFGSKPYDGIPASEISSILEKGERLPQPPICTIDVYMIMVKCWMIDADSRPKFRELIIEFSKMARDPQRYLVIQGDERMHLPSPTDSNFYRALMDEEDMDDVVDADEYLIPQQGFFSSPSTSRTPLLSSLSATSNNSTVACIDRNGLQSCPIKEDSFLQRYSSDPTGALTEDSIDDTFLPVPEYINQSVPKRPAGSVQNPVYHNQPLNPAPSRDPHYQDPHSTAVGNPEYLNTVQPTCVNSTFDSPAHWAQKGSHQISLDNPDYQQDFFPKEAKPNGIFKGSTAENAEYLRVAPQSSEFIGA

COc1c(NC(=O)/C=C/CN(C)C)ccc2ncnc(Nc3cccc(Cl)c3F)c12 [Example 1, (E)-N-(4-((3-chloro-2-fluorophenyl)amino)-5-methoxyquinazolin-6-yl)-4-(dimethylamino)but-2-enamide]
Kp at 2 hours ([1]; SD, brain/blood, PO 10 mg/kg, 2 hours after administration, read-out: Brain/blood ratio): 3.06
concentration at 2 hours ([1]; SD, brain, PO 10 mg/kg, 2 hours after administration, read-out: Brain concentration): 1470 ng/g
concentration at 2 hours ([1]; SD, plasma, PO 10 mg/kg, 2 hours after administration, read-out: Plasma drug concentration): 480 ng/mL
ability to penetrate the blood-brain barrier (in words) [1]: excellent ability to penetrate the blood-brain barrier
AUC(0-inf) ([2]; SD, plasma, IV 3 mg/kg): 724 ± 105 ng·h/mL
AUC(0-t) ([2]; SD, plasma, IV 3 mg/kg): 709 ± 96 ng·h/mL
Vd ([2]; SD, plasma, IV 3 mg/kg): 8.76 ± 0.67 L/kg
half-life ([2]; SD, plasma, IV 3 mg/kg): 1.45 ± 0.09 h
concentration at 0 hr [2, 3]: 0 ng/mL
concentration at 0.083 hr ([2]; SD, plasma, IV 3 mg/kg, time point 0.083 hr, read-out: Plasma drug concentration): 888 ± 106 ng/mL
concentration at 0.25 hr [2, 3]: 494 ± 121 ng/mL
concentration at 0.5 hr [2, 3]: 365 ± 48 ng/mL
concentration at 1 hr [2, 3]: 175 ± 23 ng/mL
concentration at 2 hr [2, 3]: 78.2 ± 28.7 ng/mL
concentration at 4 hr [2, 3]: 18.8 ± 8.7 ng/mL
concentration at 7 hr [2, 3]: 7.05 ± 3.77 ng/mL
AUC(0-inf) ([2]; SD, plasma, PO 10 mg/kg): 1780 ± 178 ng·h/mL
AUC(0-t) ([2]; SD, plasma, PO 10 mg/kg): 1730 ± 170 ng·h/mL
Cmax ([2]; SD, plasma, PO 10 mg/kg): 281 ± 73 ng/mL
Tmax ([2]; SD, plasma, PO 10 mg/kg): 1 h
bioavailability ([2]; SD, plasma, PO 10 mg/kg): 73.6 ± 7.4%
half-life ([2]; SD, plasma, PO 10 mg/kg): 3.17 ± 1.22 h
concentration at 0 hr [2, 4]: 0 ng/mL
concentration at 0.25 hr [2, 4]: 83.2 ± 29.9 ng/mL
concentration at 0.5 hr [2, 4]: 227 ± 58 ng/mL
concentration at 1 hr [2, 4]: 281 ± 73 ng/mL
concentration at 2 hr [2, 4]: 249 ± 74 ng/mL
concentration at 4 hr [2, 4]: 77.7 ± 7.3 ng/mL
concentration at 7 hr [2, 4]: 72.6 ± 25.5 ng/mL
concentration at 24 hr ([2]; SD, plasma, PO 10 mg/kg, time point 24 hr, read-out: Plasma drug concentration): 14.2 ± 19.7 ng/mL
Cl_obs ([2]; IV 3 mg/kg): 70.0 ± 9.5 mL/min/kg
IC50 (EGFR^WT kinase): ≤ 1 nM
